Laboratory results from patent US7674816B2, “Substituted melatonin derivatives, process for their preparation, and methods of use” (Abraxis BioScience, LLC, priority 2003, dated 2010).

Tests used:
[1] = system: GABAA Cl channel; test: GABAA Cl channel, TBOB site competitive binding (3H-TBOB), single concentration; conditions: Conc. 1.0E−4 M, bovine hippocampus
Description: (§1) The binding profile of exemplary inventive compounds to neurotransmitter receptor sites is set forth below in Table 1. The characterization of the receptors, isolation of the membrane, and enzyme assay have been described in detail previously (see, e.g., Cole et al., Life Sci., 35, 1755 (1984), Lawrence et al., J. Neurochem., 45(3), 798 (1985), Sweetnam et al., Mol. Pharmacology, 29, 299 (1986), Zarkovsky et al., Neuropharmacology, 26 (7A), 737 (1987), Li et al., Eur. J. Pharmacology, 413, 63 (2001), and Markela et al., Mol. Pharmacology, 52, 380 (1997)).
(§2) The melatonin binding site on GABAA was defined using a series of competitive binding assays. Frozen bovine hippocampus was thawed and homogenized in 40 volumes of ice-cold 0.32 M sucrose. The suspension was centrifuged at 1000×g for 10 minutes at 4° C. The pellet was washed twice in assay buffer and reacted with radioactive ligand in presence or absence of melatonin at 10^−4 M final concentration. The amount of radioactivity remained on the Whatman filter following filtration of the reaction mix and two washes with assay buffer was determined using a liquid scintillation counter. Inhibition of radioactive ligand binding by melatonin represents the competitive binding of melatonin to the same site as the radioactive ligand. GABAA agonist site, GABAA α-1 site, GABAA α-5 site, GABAA α-6 site, and GABAA Cl channel were assayed using ^3H-GABA, ^3H-flunitrazepam, ^3H-RY80, ^3H-Ro 15-4513, and ^3H-TBOB.

[2] = system: GABAA α-6 site; test: GABAA alpha 6 site competitive binding (3H-Ro 15-4513); conditions: Conc. 1.0E−4 M, bovine hippocampus
Description: as §1, §2

[3] = target: T1, GABAA α-5 site (Bos taurus, UniProt P22300+Q08E50); test: GABAA alpha 5 site competitive binding (3H-RY80); conditions: bovine hippocampus
T1 construct: Frozen bovine hippocampus was thawed and homogenized in 40 volumes of ice-cold 0.32 M sucrose; from tissue; host or cells: bovine hippocampus membranes (washed pellet)
T1 sequence (Q08E50 32-462): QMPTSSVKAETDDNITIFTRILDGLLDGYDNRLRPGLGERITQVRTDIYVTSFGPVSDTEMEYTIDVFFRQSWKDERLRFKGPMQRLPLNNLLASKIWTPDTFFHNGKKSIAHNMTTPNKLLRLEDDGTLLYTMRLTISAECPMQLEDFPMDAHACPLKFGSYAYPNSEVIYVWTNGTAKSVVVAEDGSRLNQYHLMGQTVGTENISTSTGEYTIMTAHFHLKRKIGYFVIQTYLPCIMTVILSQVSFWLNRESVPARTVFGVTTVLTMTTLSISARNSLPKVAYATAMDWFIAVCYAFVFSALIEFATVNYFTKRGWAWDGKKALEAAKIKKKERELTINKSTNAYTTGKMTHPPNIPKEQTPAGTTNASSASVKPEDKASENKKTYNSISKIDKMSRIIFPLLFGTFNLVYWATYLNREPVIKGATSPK
T1 sequence (P22300 40-475): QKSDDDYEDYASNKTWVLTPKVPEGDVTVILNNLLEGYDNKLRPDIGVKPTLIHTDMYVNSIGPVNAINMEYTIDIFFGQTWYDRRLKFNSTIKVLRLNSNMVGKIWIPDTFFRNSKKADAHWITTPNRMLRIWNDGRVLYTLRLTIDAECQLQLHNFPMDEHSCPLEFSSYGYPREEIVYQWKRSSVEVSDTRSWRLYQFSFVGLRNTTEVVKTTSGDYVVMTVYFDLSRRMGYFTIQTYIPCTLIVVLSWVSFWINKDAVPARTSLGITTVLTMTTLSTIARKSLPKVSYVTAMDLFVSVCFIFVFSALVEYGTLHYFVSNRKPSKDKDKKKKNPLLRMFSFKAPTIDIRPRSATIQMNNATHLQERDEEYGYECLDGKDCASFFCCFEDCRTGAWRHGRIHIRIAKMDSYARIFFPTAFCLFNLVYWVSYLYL
Method: Frozen bovine hippocampus was thawed and homogenized in 40 volumes of ice-cold 0.32 M sucrose. The suspension was centrifuged at 1000×g for 10 minutes at 4° C. […] The amount of radioactivity remained on the Whatman filter following filtration of the reaction mix and two washes with assay buffer was determined using a liquid scintillation counter. Inhibition of radioactive ligand binding by melatonin represents the competitive binding of melatonin to the same site as the radioactive ligand.

[4] = system: GABAA α-1 site; test: GABAA alpha 1 site competitive binding (3H-flunitrazepam); conditions: Conc. 1.0E−4 M, bovine hippocampus
Description: as §1, §2

[5] = system: GABAA α-1 site; test: as above; conditions: Conc. 1.0E−3 M, bovine hippocampus
[6] = system: GABAA α-6 site; test: GABAA alpha 6 site competitive binding (3H-Ro 15-4513); conditions: Conc. 1.0E−3 M, bovine hippocampus
[7] = system: GABAA agonist site; test: GABAA agonist site competitive binding (3H-GABA); conditions: Conc. 1.0E−3 M, bovine hippocampus
Description: as §1, §2

[8] = system: GABAA Cl channel; test: GABAA Cl channel, TBOB site competitive binding (3H-TBOB), single concentration; conditions: Conc. 1.0E−3 M, bovine hippocampus

Compound | Specific binding, GABAA Ion Channels Cl−, TBOB site (inhibition of radioactive ligand binding) [1] [%] | Specific binding, GABAA Alpha 6 site (inhibition of radioactive ligand binding) [2] [%] | Specific binding, GABAA Alpha 5 site (inhibition of radioactive ligand binding) ([3]; Conc. 1.0E−4 M) [%] | Specific binding, GABAA Alpha 1 site (inhibition of radioactive ligand binding) [4] [%] | Specific binding, GABAA Alpha 1 site (inhibition of radioactive ligand binding) [5] [%] | Specific binding, GABAA Alpha 5 site (inhibition of radioactive ligand binding) ([3]; Conc. 1.0E−3 M) [%] | Specific binding, GABAA Alpha 6 site (inhibition of radioactive ligand binding) [6] [%] | Specific binding, GABAA Agonist site (inhibition of radioactive ligand binding) [7] [%] | Specific binding, GABAA Ion Channels Cl−, TBOB site (inhibition of radioactive ligand binding) [8] [%]
COc1ccc(-c2[nH]c3ccc(OC)cc3c2CCNC(C)=O)cc1 | 108.82 | 6.68 | 7.09 | −8.16 |  |  |  |  | 
COc1cc2c(CCNC(C)=O)c[nH]c2cc1Cl [6-Chloromelatonin] |  |  |  |  | 12.49 | 13.95 | −7.74 | −13.74 | 43.63
